Our source for the IC50 values is patent publication US11440923B2, “Substituted macrocyclic indole derivatives” (Bayer Aktiengesellschaft, priority 2017, dated 2022).

Test [1] deals with BCL-XL (Homo sapiens (Human), UniProt Q07817). Description: Protein-protein interaction assay BCL-XL/Bad BH3 peptide (BCL-XL assay, TR-FRET). Type of test: binding. Conditions: read-out: BCL-XL Assay IC50 (median). Put shortly:
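Human BCL-XL (aa 1-212, C-terminal His6, E. coli) at 1 nM end concentration, preincubated 10 min at 22 °C with compound (11 concentrations, 0.1 nM–20 μM, duplicates), then biotinylated Bad BH3 peptide (1 nM) added with anti-His-Eu cryptate/streptavidin-XL665. Incubation 1 h at 22 °C then overnight at 4 °C; TR-FRET 665/620 ratio, IC50 from 4-parameter fit.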
In general terms: In TR-FRET formats the signal depends on donor and acceptor labels being close together.

For test [2], the system named is SUDHL5 cells. Put plainly: Antiproliferation assay SUDHL5 (Assay 7). Type of test: cell-based. Conditions: Homo sapiens, SU-DHL-5, 72 h, 72 h, CellTiter-Glo; read-out: Antiproli SUDHL5 IC50 (median). In a few lines:
(§1)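 Luminescent viability signal (CellTiter-Glo) after 72 h of treatment served as read-out. IC50 values were derived with day 0 luminescence as CI and DMSO wells as C0.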
On the technique in general: In ATP-based viability assays light output follows the ATP content of the culture.

The subject of test [3] is HMC-1-8 cells. Description: Antiproliferation assay HMC-1-8 (Assay 7). The format is cell-based. The conditions noted are these: 72 h, CellTiter-Glo, read-out: Antiproli HMC-1-8 IC50 median. In a few lines: as §1

BCL-XL, sequence (Q07817 1-212): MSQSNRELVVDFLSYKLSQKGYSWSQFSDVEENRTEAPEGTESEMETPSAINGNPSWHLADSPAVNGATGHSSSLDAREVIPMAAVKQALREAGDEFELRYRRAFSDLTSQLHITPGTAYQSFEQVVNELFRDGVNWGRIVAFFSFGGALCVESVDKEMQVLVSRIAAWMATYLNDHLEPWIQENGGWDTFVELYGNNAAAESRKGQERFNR

Turning to `CCc1c2c(nn1C)C(CCN1CCOCC1)OCCCCn1c(C(=O)O)c(CCCOc3cccc4cc(F)ccc34)c3ccc(Cl)c-2c31` (racemic) [Example 22, (rac)-4-chloro-3-ethyl-7-{3-[(6-fluoronaphthalen-1-yl)oxy]propyl}-2-methyl-15-[2-(morpholin-4-yl)ethyl]-2,10,11,12,13,15-hexahydropyrazolo[4′,3′:9,10][1,6]oxazacycloundecino[8,7,6-hi]indole-8-carboxylic Acid], the IC50 in test [1] was greater than 20 µM; in test [2], 0.013 µM; in test [3] it was 0.279 µM.

`CCC1OCCCCn2c(C(=O)O)c(CCCOc3cccc4ccccc34)c3ccc(Cl)c(c32)-c2c1nn(C)c2C` (racemic) [Example 25, (rac)-4-chloro-15-ethyl-2,3-dimethyl-7-{3-[(naphthalen-1-yl)oxy]propyl}-2,10,11,12,13,15-hexahydropyrazolo[4′,3′:9,10][1,6]oxazacycloundecino[8,7,6-hi]indole-8-carboxylic Acid]: the results for the IC50 in test [1], in test [2] and in test [3] were greater than 20 µM, 2.3 µM and 12.9 µM, respectively.

On to `Cc1c2c(nn1C)C(CCO)OCCCCn1c(C(=O)O)c(CCCOc3cccc4ccccc34)c3ccc(Cl)c-2c31` (racemic) [Example 26, (rac)-4-chloro-15-(2-hydroxyethyl)-2,3-dimethyl-7-{3-[(naphthalen-1-yl)oxy]propyl}-2,10,11,12,13,15-hexahydropyrazolo[4′,3′:9,10][1,6]oxazacycloundecino[8,7,6-hi]indole-8-carboxylic Acid], for which the values for the IC50 in test [1], in test [2] and in test [3] were greater than 20 µM, 0.41 µM and 6.78 µM, respectively.

Turning to `CCc1c2c(nn1C)C(C(F)(F)F)OCCCCn1c(C(=O)O)c(CCCOc3cccc4ccccc34)c3ccc(Cl)c-2c31` (racemic) [Example 27, (rac)-4-Chloro-3-ethyl-2-methyl-7-{3-[(naphthalen-1-yl)oxy]propyl}-15-(trifluoromethyl)-2,10,11,12,13,15-hexahydropyrazolo[4′,3′:9,10][1,6]oxazacycloundecino[8,7,6-hi]indole-8-carboxylic Acid], the IC50 is greater than 20 µM in test [1], 0.17 µM in test [2] and 20.7 µM in test [3].

On to `Cc1c2c(nn1C)C(C1CC1)OCCCCn1c(C(=O)O)c(CCCOc3cccc4ccccc34)c3ccc(Cl)c-2c31` (racemic) [Example 28, (rac)-4-Chloro-15-cyclopropyl-2,3-dimethyl-7-{3-[(naphthalen-1-yl)oxy]propyl}-2,10,11,12,13,15-hexahydropyrazolo[4′,3′:9,10][1,6]oxazacycloundecino[8,7,6-hi]indole-8-carboxylic Acid], for which the IC50 in test [1] turned out to be 19.8 µM; in test [2], 2.7 µM; in test [3], 20.8 µM.

With `COCCC1OCCCCn2c(C(=O)O)c(CCCOc3cccc4ccccc34)c3ccc(Cl)c(c32)-c2c1nn(C)c2C` (racemic) [Example 37, (rac)-4-chloro-(15-rac)-(2-methoxyethyl)-2,3-dimethyl-7-{3-[(naphthalen-1-yl)oxy]propyl}-2,10,11,12,13,15-hexahydropyrazolo[4′,3′:9,10][1,6]oxazacycloundecino[8,7,6-hi]indole-8-carboxylic Acid], the figures for the IC50 in test [1], in test [2] and in test [3] were 17.1 µM, 0.51 µM and 7.45 µM, respectively.

Turning to `CCc1c2c(nn1C)C(CCOC)OCCCCn1c(C(=O)O)c(CCCOc3cccc4cc(F)ccc34)c3ccc(Cl)c-2c31` (racemic) [Example 41, (rac)-4-chloro-3-ethyl-7-{3-[(6-fluoronaphthalen-1-yl)oxy]propyl}-(15-rac)-(2-methoxyethyl)-2-methyl-2,10,11,12,13,15-hexahydropyrazolo[4′,3′:9,10][1,6]oxazacycloundecino[8,7,6-hi]indole-8-carboxylic Acid], the IC50 in test [1] stood at 15 µM; in test [2], 0.16 µM; in test [3], 1.31 µM.

Usually IC50 stands for the concentration needed to halve the response being measured.
